Data taken from PubChem BioAssay AID179 (DTP/NCI, 2004).
Active and inactive are the calls of the source.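 How the source made its calls: active means compounds giving half or more protection of infected cells from virus-caused growth loss, again on retest; inactive means the rest.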

Tested on: CEM cells HIV-1 protection, formazan growth assay
Assay: NCI AIDS Antiviral Assay
Details: for IC50: measured here: growth of uninfected CEM cells
Procedure, shortened: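 Protection of CEM cells against HIV-1 was scored from cell growth (soluble formazan) across five concentrations, with parallel uninfected cells. Lack of protection may reflect toxicity.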

O=C1CCCC2=C(N1)C(=O)C=CC2=O
EC50: > 955 µM
IC50: 8.71 µM

Nc1nc(N)c(N=O)c(=O)[nH]1
EC50: > 200 µM
IC50: > 200 µM

CC(CC(=O)N(C)[C@H](C[C@@H](C)C(Cl)(Cl)Cl)c1nccs1)C(Cl)Cl (some centres not stated)
outcome: inactive

O=C(/C=C/c1ccc(Cl)cc1)c1ccc(Cl)c(Cl)c1
EC50: > 32.4 µM
IC50: > 32.4 µM

CN(C)C(=S)SSC(=S)N(C)C.[Zn+2]
EC50: > 200 µM
IC50: 0.117 µM

CSC(SC)=C(C#N)C(=O)Nc1cccc(Cl)c1
EC50: > 200 µM
IC50: 30.2 µM

O=c1c(-c2cccc(O)c2O)coc2cc(OC3OC(CO)C(O)C(O)C3O)ccc12 (configuration not stated)
EC50: > 200 µM
IC50: > 200 µM

O=c1cc(-c2ccccc2)oc2cc(Oc3nnnn3-c3ccccc3)ccc12
EC50: > 200 µM
IC50: 42.7 µM

C=C[C@]1(C)CC[C@]2(C)C(CC[C@@]3(C)C2C[C@H](O)[C@H](O)[C@@]3(C)O)C1 (some centres not stated)
EC50: > 200 µM
IC50: 141 µM

CC1(C)[C@H](CO)C(CO)[C@@H]1n1cnc2c(N)ncnc21 (some centres not stated)
EC50: > 912 µM
IC50: > 912 µM

CCOC(=O)CN(c1sc(C)c(CC)c1C(=O)OCC)S(=O)(=O)c1ccc(C)cc1
EC50: > 200 µM
IC50: 10.2 µM

O=c1n(-c2ccccc2)c(=O)n2n1C1C3C4C5C1C5C2C43 (configuration not stated)
EC50: > 200 µM
IC50: > 200 µM

COc1ccc(Sc2ccccc2[N+](=O)[O-])cc1
outcome: inactive

C=C(C)[C@@]1(O)CCC[C@H]1NC(=O)OC(C)(C)C
EC50: > 200 µM
IC50: > 200 µM

CC(C)(C)C(=O)O[C@H]1C=C[C@@H](O)[C@@H]2[C@H]1[C@@H]1C=C[C@H]2C1
EC50: > 200 µM
IC50: 22.9 µM

Clc1cc2nsnc2c(Cl)n1
EC50: > 457 µM
IC50: 2.75 µM

Cc1c(=O)n(O)c2ccccc2[n+]1[O-]
EC50: > 200 µM
IC50: > 200 µM

NNC(=S)N/N=C(\c1nc2ccc(Cl)cc2[nH]c1=O)C(O)c1ccc(Cl)cc1Cl (configuration not stated)
EC50: > 525 µM
IC50: 97.7 µM

C/C=C(/C)C(=O)O[C@H](C[C@@H](C)[C@H]1CC(c2ccoc2)OC1=O)[C@@]1(C)C(=O)CCC2O[C@]21C (some centres not stated)
EC50: > 200 µM
IC50: > 200 µM

CC1(C)OC(=O)C(c2cccs2)C(=O)O1
EC50: > 44.7 µM
IC50: > 44.7 µM

CC1=Nc2ccccc2N=C(C)C1
EC50: > 200 µM
IC50: > 200 µM

CCOC(=O)C1=C(C)N2CCOC2(C)C(C(=O)OC)C1c1cccc(Cl)c1 (configuration not stated)
EC50: > 66.1 µM
IC50: > 66.1 µM

CCC1(O)CC2CC(=O)OC2C1O (configuration not stated)
EC50: > 200 µM
IC50: > 200 µM

COC(=O)CC1C(C(C)(OC)OC)C(=O)N1[Si](C)(C)C(C)(C)C (configuration not stated)
EC50: > 363 µM
IC50: > 363 µM

CN(C)CCN1C(=O)N(CCN(C)C)c2c3cc(O)ccc3nc3c([N+](=O)[O-])ccc1c23
EC50: > 200 µM
IC50: 2.34 µM

Cc1cc(C2(c3cc(C)c(O)c4ncccc34)OC(=O)c3ccccc32)c2cccnc2c1O
EC50: > 2 µM
IC50: 0.102 µM

O=C(O)c1ccccc1S
EC50: > 200 µM
IC50: > 200 µM

COc1cnn(-c2ccccc2)c(=O)c1SCc1ccc(Cl)c(Cl)c1
EC50: > 34.7 µM
IC50: 27.5 µM

COc1c[c]([Hg][O]C(C)=O)c(OC)c(NC(=O)CC(C)=O)[c]1[Hg][O]C(C)=O
EC50: > 0.724 µM
IC50: > 0.724 µM

CN(C)c1ccc(N=Nc2ccc(/C=C/c3ccnc4ccccc34)cc2)cc1
EC50: > 19.1 µM
IC50: > 19.1 µM

CC1(C)OC(=O)c2cc(C(=CCCO)c3cc(Cl)c4c(c3)C(=O)OC(C)(C)O4)cc(Cl)c2O1
EC50: > 200 µM
IC50: 28.8 µM

CN1CCN(C(=S)N(C(=O)c2ccco2)C2CCCCC2)CC1
EC50: > 741 µM
IC50: 631 µM

N#Cc1cnc(-n2[nH]c3c(c2=O)CCCC3)[nH]c1=O
outcome: inactive

Cn1cc(NC(=O)c2nc(NC(=O)c3nc(NC(=O)c4ccc(C(=O)Nc5cn(C)c(C(=O)Nc6cn(C)c(C(=O)Nc7cn(C)c(C(=O)NCCC(=N)N)n7)n6)n5)nc4)cn3C)cn2C)nc1C(=O)NCCC(=N)N
EC50: > 50.1 µM
IC50: 1.17 µM

COC(=O)c1c2c(n(CCO)c1OC)C(=O)c1ccccc1C2=O
EC50: > 200 µM
IC50: 81.3 µM

COC[C@H]1OC(=O)c2coc3c2[C@@]1(C)C1=C(C3=O)[C@@H]2CCC(=O)[C@@]2(C)C[C@H]1OC(C)=O
outcome: inactive

CCOC(=O)/C(C#N)=C(O)/C(=C/c1ccccc1Cl)NC(=O)c1ccccc1
EC50: > 631 µM
IC50: > 631 µM

CCCCCCCCCCCCNC(=O)C(O)C(O)C(O)C(COS(=O)(=O)O)OS(=O)(=O)O (configuration not stated)
EC50: > 200 µM
IC50: 30.2 µM

O=P(O)(O)CN1CCNCCN(CP(=O)(O)O)CC1
EC50: > 100 µM
IC50: 70.8 µM

CCCCCCCCCCN(CCCCCCCCCC)C(=O)COc1c2cc(C(C)(C)C)cc1Cc1cc(C(C)(C)C)cc(c1OCC(=O)N(CCCCCCCCCC)CCCCCCCCCC)Cc1cc(C(C)(C)C)cc(c1OCC(=O)N(CCCCCCCCCC)CCCCCCCCCC)Cc1cc(C(C)(C)C)cc(c1OCC(=O)N(CCCCCCCCCC)CCCCCCCCCC)C2
EC50: > 50.1 µM
IC50: 3.39 µM

CN(C)C(=N)c1ccccc1
outcome: inactive
